Source: US12240813B2, “Deuterated tryptamine derivatives and methods of use” (priority 2020, dated 2025)

Columns and labels:
hrMAO-A = target: T1, hrMAO-A (Homo sapiens, UniProt P21397); assay: Metabolic stability in the presence of hrMAO-A; type: in vitro ADME; conditions: for MAO, % (half-life as % vs. the related nondeuterated compound): values in square brackets are within 10% difference (assay's accuracy), no deuteration effect; for % Remaining of Initial, 0 min / % Remaining of Initial, 5 min / % Remaining of Initial, 10 min / % Remaining of Initial, 20 min / % Remaining of Initial, 30 min / % Remaining of Initial, 60 min / % Remaining of Initial, 120 min / CLint / Half-life: hrMAO-A; for % Remaining of Initial, 0 min / % Remaining of Initial, 5 min / % Remaining of Initial, 10 min / % Remaining of Initial, 20 min / % Remaining of Initial, 30 min / % Remaining of Initial, 60 min / % Remaining of Initial, 120 min / Half-life: Table 3, four test articles; for CLint: Table 3
T1 construct: purchased XenoTech Lot #8213001
T1 sequence (P21397 1-527): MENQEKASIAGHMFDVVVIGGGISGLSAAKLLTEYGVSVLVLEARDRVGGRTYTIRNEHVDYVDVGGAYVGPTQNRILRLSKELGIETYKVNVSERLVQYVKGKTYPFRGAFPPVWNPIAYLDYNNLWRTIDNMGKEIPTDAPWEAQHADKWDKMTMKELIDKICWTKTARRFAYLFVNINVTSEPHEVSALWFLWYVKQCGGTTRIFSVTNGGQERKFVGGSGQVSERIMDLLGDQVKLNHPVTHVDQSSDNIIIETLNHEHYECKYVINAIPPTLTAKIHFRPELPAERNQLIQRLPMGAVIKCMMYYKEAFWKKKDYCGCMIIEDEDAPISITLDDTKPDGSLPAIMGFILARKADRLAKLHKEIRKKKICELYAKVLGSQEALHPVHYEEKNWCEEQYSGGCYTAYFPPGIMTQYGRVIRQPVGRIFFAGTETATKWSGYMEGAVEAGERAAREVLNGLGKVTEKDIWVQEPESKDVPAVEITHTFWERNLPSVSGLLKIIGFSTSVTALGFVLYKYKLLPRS
Method: The reaction mixture was prepared as described below. The co-dosed TAs were added into the reaction mixture at a final concentration of 1 microM each. The positive control, kynuramine (25 microM), was run simultaneously with the TAs in a separate reaction. The reaction mixture (without TAs or kynuramine) was equilibrated in a shaking water bath at 37° C. for 5 minutes. The reaction was initiated by the addition of the TAs or kynuramine, and the mixture was incubated in a shaking water bath at 37° C. Aliquots (100 microL) of the TA reaction mixture were withdrawn at 0, 5, 10, 20, 30, 60, and 120 minutes. Aliquots (100 microL) of the positive control reaction mixture were withdrawn at 0 and 30 minutes. TA and kynuramine samples were immediately combined with 100 microL of ice-cold 100% MeCN containing 0.1% formic acid and IS to terminate the reaction. The samples were then mixed and centrifuged to precipitate proteins. All TA samples were assayed by LC-HRAMS. The PARR (analyte to IS) at each time point was compared to the PARR at time 0 to determine the percent remaining at each time point. Reaction composition: hrMAO 0.02 mg/mL; Potassium Phosphate, pH 7.4 100 mM; Magnesium Chloride 5 mM; Test Articles (each) 1 microM.

rat liver microsomes = assay: Metabolic stability in rat liver microsomes (RLM); conditions: RLM; for RLM, % (half-life as % vs. the related nondeuterated compound): values in square brackets are within 10% difference (assay's accuracy), no deuteration effect; for % Remaining of Initial, 0 min / % Remaining of Initial, 5 min / % Remaining of Initial, 10 min / % Remaining of Initial, 20 min / % Remaining of Initial, 30 min / % Remaining of Initial, 60 min / % Remaining of Initial, 120 min: Table 2, four test articles

Row | SMILES | MAO, % (half-life as % vs. the related nondeuterated compound) (hrMAO-A; MAO-A) | RLM, % (half-life as % vs. the related nondeuterated compound) (rat liver microsomes) | % Remaining of Initial, 0 min (hrMAO-A) [%] | % Remaining of Initial, 5 min (hrMAO-A) [%] | % Remaining of Initial, 10 min (hrMAO-A) [%] | % Remaining of Initial, 20 min (hrMAO-A) [%] | % Remaining of Initial, 30 min (hrMAO-A) [%] | % Remaining of Initial, 60 min (hrMAO-A) [%] | % Remaining of Initial, 120 min (hrMAO-A) [%] | CLint (hrMAO-A) [mL/min/mg protein] | Half-life (hrMAO-A) [h] | % Remaining of Initial, 0 min (rat liver microsomes) [%] | % Remaining of Initial, 5 min (rat liver microsomes) [%] | % Remaining of Initial, 10 min (rat liver microsomes) [%] | % Remaining of Initial, 20 min (rat liver microsomes) [%] | % Remaining of Initial, 30 min (rat liver microsomes) [%] | % Remaining of Initial, 60 min (rat liver microsomes) [%] | % Remaining of Initial, 120 min (rat liver microsomes) [%] | further results
1 | [2H]C([2H])([2H])Oc1ccc2[nH]cc(CC([2H])([2H])N(C([2H])([2H])[2H])C([2H])([2H])[2H])c2c1 | 366% | 288% | – | – | – | – | – | – | – | – | – | – | – | – | – | – | – | – | –
2 | [2H]c1[nH]c2c([2H])c([2H])c([2H])c([2H])c2c1C([2H])([2H])C([2H])([2H])N(C)C | 551% | 243% | – | – | – | – | – | – | – | – | – | – | – | – | – | – | – | – | –
3 | [2H]c1[nH]c2c([2H])c([2H])c([2H])c([2H])c2c1CCN(C)C | [103] % | [106] % | – | – | – | – | – | – | – | – | – | – | – | – | – | – | – | – | –
4 | [2H]C([2H])([2H])Oc1ccc2[nH]cc(CCN(C)C)c2c1 | [109] % | 151% | – | – | – | – | – | – | – | – | – | – | – | – | – | – | – | – | –
5 | [2H]C([2H])(NC)C([2H])([2H])c1c[nH]c2ccccc12 | 622% | 189% | – | – | – | – | – | – | – | – | – | – | – | – | – | – | – | – | –
6 | [2H]C([2H])(Cc1c[nH]c2ccccc12)NC | 578% | 182% | – | – | – | – | – | – | – | – | – | – | – | – | – | – | – | – | –
7 | COc1ccc2[nH]cc(CCN(C)C)c2c1 [5-MeO-DMT, reference compound] | – | – | – | – | – | – | – | – | – | – | – | – | – | – | – | – | – | – | MAO (metabolized or not) (hrMAO-A; MAO-A, last assay time point 120 min): R; RLM (metabolized or not) (rat liver microsomes; last assay time point 120 min): R
8 | CN(C)CCc1c[nH]c2ccccc12 [DMT, reference compound] | – | – | 100 | 96.3 | 90.7 | 64.8 | 49.4 | 18.1 | 3.95 | 0.638 | 0.453 | 100 | 65.2 | 52.2 | 41.0 | 33.2 | 17.4 | 4.07 | –
9 | [2H]C([2H])(Cc1c[nH]c2ccccc12)N(C)C [DMT-d2] | – | – | 100 | 106 | 111 | 101 | 97.5 | 76.0 | 59.1 | 0.126 | > 2 | 100 | 67.5 | 56.6 | 48.8 | 43.3 | 32.0 | 21.5 | –
10 | [2H]C([2H])(c1c[nH]c2ccccc12)C([2H])([2H])N(C)C [DMT-d4] | – | – | 100 | 106 | 111 | 102 | 98.2 | 77.4 | 61.4 | 0.119 | > 2 | 100 | 70.7 | 59.6 | 51.8 | 46.3 | 34.2 | 23.7 | –
